Reference: EP0539180A1, “Antiviral agents” (SANWA KAGAKU KENKYUSHO CO., LTD., priority 1991, dated 1993)
Like-named read-outs stand apart in the source and are kept apart here. Marks after values point to notes of the source that are not given here.

Columns and labels:
HSV-1 (Miyama strain) [1] = test: In vitro antiviral activity against HSV-1 (CPE inhibition, virus titer reduction) in GMK cells; format: cell-based; settings: read-out: Antiviral Activity (ΔTCID50 (log10))
Description: The virus titer (TCID₅₀) was determined from CPE of virus infected culture. Antiviral effects of the test compounds were calculated from TCID₅₀ values of the test compounds treated and control cultures and represented by ΔTCID₅₀ (log₁₀).
In this regard, it is noted that prior to be added to the incubation systems, the compounds were dissolved in MEM or ethanol media at 10 mg/ml concentrations, and diluted with MEM media supplemented with 1% fetal bovine serum.

GMK cells = test: Cytotoxicity, microscopically observed in GMK cell cultures; format: cell-based, green monkey
HSV-1 (Miyama strain) [2] = test: In vivo anti-HSV-1 activities in intraperitoneally infected mice (Testing 4); set-up: species or system BALB/c mice; settings: mice infected with 322 PFU HSV-1; for Survival Ratios after 21 days (%): control 0; for Mean Survival Days: control 6.9
HSV-1 (Miyama strain) [3] = test: In vivo anti-HSV-1 activities in intraperitoneally infected mice (Testing 5); set-up: species or system BALB/c mice; settings: mice infected with 322 PFU HSV-1; for Survival Ratios after 21 days (%): control 0; for Mean Survival Days: control 6.9, *: P<0.05 (U Test)
[4] = Human alphaherpesvirus 1, 10 μg/ml, HSV-1 (Miyama strain), GMK cells
[5] = Human alphaherpesvirus 1, 50 μg/ml, HSV-1 (Miyama strain), GMK cells
[6] = 5 mg/kg intraperitoneally for five days
[7] = 20 mg/kg intraperitoneally for five days
[8] = 10 mg/kg intraperitoneally for five days
[9] = 40 mg/kg intraperitoneally for five days

SMILES | log reduction at 10 µg/mL (HSV-1 (Miyama strain) [1]; Human alphaherpesvirus 1, GMK) | log reduction at 50 µg/mL (HSV-1 (Miyama strain) [1]; Human alphaherpesvirus 1, GMK) | cytotoxicities (GMK cells; 100 μg/ml) | log reduction at 100 µg/mL (HSV-1 (Miyama strain) [1]; Human alphaherpesvirus 1, GMK) | other results
Clc1cccc(N2CCNCC2)c1 [Compound 2, 1-(m-chlorophenyl)piperazine hydrochlorate] | 0.46 | 1.23 | (±±) |  | 
Clc1ccc(N2CCNCC2)cc1 [Compound 3, 1-(p-chlorophenyl)piperazine hydrochlorate] | 0 | 1.5 | (±±) |  | 
COc1ccccc1N1CCNCC1 [Compound 4, 1-(o-methoxyphenyl)piperazine hydrochlorate] | 0.56 | 1.56 | (+) | 2.5 | 
Fc1ccccc1N1CCNCC1 [Compound 5, 1-(o-fluorophenyl)piperazine hydrochlorate] | 0.33 | 1.33 | (+) | 1.56 | 
Fc1ccc(N2CCNCC2)cc1 [Compound 6, 1-(p-fluorophenyl)piperazine hydrochlorate] | 0 | 0.5 | (+) | 1.33 | 
c1ccc(N2CCNCC2)cc1 [Compound 7, 1-phenylpiperazine] |  |  | (+) | 0.83 | 
c1ccc(N2CCCCC2)cc1 [Compound 8, 1-phenylpiperidine] |  |  | (+) | 0.5 | 
COc1ccccc1N1CCN(CCN)CC1 [Compound 9, 4-(aminoethyl)-1-(o-methoxyphenyl)piperazine] |  |  |  |  | log reduction at 10 µg/mL (HSV-1 (Miyama strain) [1]; [4]): 0.87; log reduction at 50 µg/mL (HSV-1 (Miyama strain) [1]; [5]): 1.8; log reduction at 100 µg/mL (HSV-1 (Miyama strain) [1]; Human alphaherpesvirus 1, 100 μg/ml, HSV-1 (Miyama strain), GMK cells): 2.53; Survival Ratios after 21 days (%) (HSV-1 (Miyama strain) [2]; [6]): 70%; Mean Survival Days (HSV-1 (Miyama strain) [2]; [6]): 17.5* Days; Survival Ratios after 21 days (%) (HSV-1 (Miyama strain) [2]; [7]): 50%; Mean Survival Days (HSV-1 (Miyama strain) [2]; [7]): 10.9* Days
CC[C@]12CCCN3CCc4c(n(c5ccccc45)C(=NOCC(O)CN4CCN(c5ccccc5OC)CC4)C1)[C@@H]32 (stereo partly drawn) [Compound 10] |  |  |  |  | log reduction at 10 µg/mL (HSV-1 (Miyama strain) [1]; [4]): > 3; log reduction at 50 µg/mL (HSV-1 (Miyama strain) [1]; [5]): > 2.17; cytotoxicities (GMK cells; 50 μg/ml): (±); Survival Ratios after 21 days (%) (HSV-1 (Miyama strain) [3]; [6]): 50%; Mean Survival Days (HSV-1 (Miyama strain) [3]; [6]): 15.4* Days; Survival Ratios after 21 days (%) (HSV-1 (Miyama strain) [3]; [8]): 60%; Mean Survival Days (HSV-1 (Miyama strain) [3]; [8]): 15.4* Days; Survival Ratios after 21 days (%) (HSV-1 (Miyama strain) [3]; [7]): 50%; Mean Survival Days (HSV-1 (Miyama strain) [3]; [7]): 16.4* Days; Survival Ratios after 21 days (%) (HSV-1 (Miyama strain) [3]; [9]): 50%; Mean Survival Days (HSV-1 (Miyama strain) [3]; [9]): 15.5* Days
FC(F)(F)c1ccccc1N1CCNCC1 [Compound 11] | 2 | > 4 | (±) | < 4 | 
Clc1cccc(Cl)c1N1CCNCC1 [Compound 12] | 1 | 2.67 | (±) | > 3.3 | 
